Assay results: US20030170223A1, “Pulmonary vasodilator surfactant compositions and method of use” (Board of Trustees of Michigan State University, priority 2002, published 2003)

Columns and labels:
[1] = tested on: non-septic forms of pulmonary hypertension; conditions: infusion rates of 10 to 40 about g/kg/min, human studies; cited from earlier work
elevated PVR = experiment: GBS-induced pulmonary hypertension, pilot experiments; format: in vivo, rats
Procedure: Experimental Protocol is as follows. Fifteen rats were randomly assigned to 1 of 3 groups. Measurements taken at each time point included arterial and mixed venous blood gases, inert gas determinations in samples of arterial blood, mixed venous blood and expired gas, and TNF and TxB2 assays, mean P sa′ mean PAP, P pcw′ and CO from arterial blood, and PVR (PVR=PAP−P pcw/CO), and systemic vascular resistance (SVR=P sa/CO) were calculated at each time point.
After baseline measurements, all rats received continuous infusion of GBS (1.25×10^9 cfu/kg/hr) for 5 hours. Repeat measurements were made at 0.5, 4.0, 4.5, and 5.0 hr of GBS infusion. After 4 hours of GBS infusion, treated animals received amr (amr 10 and amr 20) (Inocor lactate, Sterling Drug Co., New York, N.Y.); control animals (control) received the amr carrier solution containing lactic acid and sodium metabisulfite. Amr 10 rats (n=5; 11.2: t 4.1 days; 3.0: t 0.5 kg) received an amr bolus (8 mg/kg) followed by a continuous infusion of amr diluted with normal saline (10 about g/kg/min) for 1 hour. Amr 20 rats (n=5; 9.2 t 2.2 days; 2.2: t 0.4 kg) received the same amr bolus (8 mg/kg) followed by a continuous infusion of amr diluted with normal saline (20 about g/kg/min) for 1 hour. […]

TNF-α = TNF-α (Homo sapiens, UniProt P01375); conditions: Fichtlscherer (2001); cited from earlier work
Chain of TNF-α (P01375 77-233 limits assumed): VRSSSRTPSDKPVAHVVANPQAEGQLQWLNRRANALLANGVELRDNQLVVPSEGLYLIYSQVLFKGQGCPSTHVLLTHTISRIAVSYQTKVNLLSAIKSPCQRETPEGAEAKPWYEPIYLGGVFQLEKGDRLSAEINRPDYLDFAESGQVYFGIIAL

Row | Compound | reversal of non-septic pulmonary hypertension [1] | effect on elevated PVR (elevated PVR) | systemic endothelial vasodilator capacity (TNF-α)
1 | CC(O)C(=O)O.Nc1cc(-c2ccncc2)c[nH]c1=O [amr] | successful in reversing | acute reduction in elevated PVR | 
2 | ETANERCEPT |  |  | profoundly improves
